Assay results as given in patent publication US20240150711A1, “PERSONALIZED REDIRECTION AND REPROGRAMMING OF T CELLS FOR PRECISE TARGETING OF TUMORS” (Dana-Farber Cancer Institute, Inc., priority 2021, published 2024).

System: Tcf7
Test: Tcf7 protein levels by intracellular flow cytometry in CD8 T cells cultured with neutralizing antibodies or added cytokines
Type: cell-based
Conditions: naïve CD8 T cells from wild-type mice, anti-CD3/anti-CD28 stimulation, cultured 1 week in IL2, IL7, IL15, IL21; versus isotype antibodies
From the text: Next, it was sought to determine whether the effects of blocking IFN-γ signaling on the Tcf7+ phenotype could be recapitulated using a method separate from CRISPR-deletion, such as with neutralizing antibodies. As such, antibodies to both the Ifn-gamma and Ifn-gamma receptor genes were used. Naïve CD8 T cells were isolated from wild-type mice and cultured in the presence of either isotype-control or a combination of Ifn-gamma and IfngR neutralizing antibodies at various dosing levels or in the presence of added cytokines (either IFN-gamma, IFN-alpha, or IL12), then stimulated with anti-CD3/anti-CD28 antibodies and cultured for 1 week in IL2, IL7, IL15, and IL21, and Tcf7 protein levels were quantified by intracellular flow cytometry, as shown in FIG. 11.

Substance: interferon-γ: added cytokine
- Tcf7 expression (Tcf7 protein levels): no effect on Tcf7 expression
